In patent US9902736B2, “1-oxo/acylation-14-acylated oridonin derivative, preparation method therefor and application thereof” (HANGZHOU BENSHENG PHARMACEUTICAL CO., LTD., priority 2012, dated 2018):
In brackets after ≈: the same amount, converted by molar mass.

Key:
MGC-803 = experiment: Solid tumor cell growth inhibition, MTT, 72 h; format: cell-based, human; conditions: Homo sapiens, MGC-803; 72 h, MTT
Description: (§1) 6000 well-growing human solid tumor cells were obtained and inoculated into wells of a 96-well cell culture plate. The culture medium was DMEM High Glucose cell culture medium containing 10% fetal bovine serum. The plate was placed in a carbon dioxide cell incubator (5% CO2) at 37° C. and incubated for 24 hours. After added with 1-oxo/acylated-14-acylated oridonin derivatives of different concentration and mixed uniformly, the plate was placed in a carbon dioxide cell incubator (5% CO2) at 37° C. and incubated for 72 hours. Then the viable cell concentration was determined by MTT method.

CNE = experiment: Solid tumor cell growth inhibition, MTT, 72 h; format: cell-based, human; conditions: Homo sapiens, CNE; 72 h, MTT
Description: as §1

Hep-2 = experiment: Solid tumor cell growth inhibition, MTT, 72 h; format: cell-based, human; conditions: Homo sapiens, HEp-2; 72 h, MTT
Description: as §1

Hela = experiment: Solid tumor cell growth inhibition, MTT, 72 h; format: cell-based, human; conditions: Homo sapiens, HeLa; 72 h, MTT
Description: as §1

RPMI 8226 = experiment: Multiple myeloma cell growth inhibition, MTT, 72 h; format: cell-based; conditions: Homo sapiens
Description: Multiple myeloma cell lines: RPMI8226 (multiple myeloma), purchased from Fuxiang Bio-tech Co. Ltd., Shanghai, China.
(§2) 6000 well-growing cells were obtained and inoculated into wells of a 96-well cell culture plate. […] On the next day, the 1-oxo/acylated-14-acylated oridonin derivatives of different concentrations were added and mixed uniformly. The plate was placed in a carbon dioxide cell incubator (5% CO2) at 37° C. and incubated for 72 hours. Then the viable cell concentration was determined by MTT method.

RKO = experiment: Solid tumor cell growth inhibition, MTT, 72 h; format: cell-based; conditions: Homo sapiens
Description: as §1

SK-OV-3 = experiment: Solid tumor cell growth inhibition, MTT, 72 h; format: cell-based; conditions: Homo sapiens, SK-OV-3, 72 h, MTT; for IC50: read-out: IC50 SK-OV-3; for IC90: read-out: IC90 SK-OV-3
Description: as §1

Hep G2 = experiment: Solid tumor cell growth inhibition, MTT, 72 h; format: cell-based; conditions: Homo sapiens, HepG2
Description: as §1

U87-MG = experiment: Solid tumor cell growth inhibition, MTT, 72 h; format: cell-based; conditions: Homo sapiens, U-87 MG
Description: as §1

CaEs-17 = experiment: Solid tumor cell growth inhibition, MTT, 72 h; format: cell-based; conditions: Homo sapiens, CaEs17
Description: as §1

A549 = experiment: Solid tumor cell growth inhibition, MTT, 72 h; format: cell-based; conditions: Homo sapiens
Description: as §1

PC-3 = experiment: Solid tumor cell growth inhibition, MTT, 72 h; format: cell-based; conditions: Homo sapiens
Description: as §1

MG-63 = experiment: Solid tumor cell growth inhibition, MTT, 72 h; format: cell-based; conditions: Homo sapiens
Description: as §1

PANC-1 = experiment: Solid tumor cell growth inhibition, MTT, 72 h; format: cell-based; conditions: Homo sapiens
Description: as §1

Becap-37 = experiment: Solid tumor cell growth inhibition, MTT, 72 h; format: cell-based; conditions: Homo sapiens
Description: as §1

NB4 = experiment: Leukemia cell growth inhibition, MTT, 72 h; format: cell-based, human; conditions: Homo sapiens, NB-4; 72 h, MTT
Text: (§3) Leukemia cell lines: leukemia cell lines: K562/adr (drug-resistant, chronic myeloid leukemia, CML), NB4 (acute promyelocytic leukemia, AML), Kasumi-1 (acute myeloid leukemia M2 type, AML-M2), Jurkat (acute lymphoblastic leukemia, ALL), all of which were donated by Cancer Research Institute of Zhejiang University, China; and H9 (acute lymphoblastic leukemia, ALL), which was purchased from China Center for Type Culture Collection.
as §2, with “6000 well-growing leukemia cells were” for “6000 well-growing cells were”, “C. and was incubated for” for “C. and incubated for”

H9 = experiment: Leukemia cell growth inhibition, MTT, 72 h; format: cell-based, human; conditions: Homo sapiens, H9; 72 h, MTT
Text: as §3
as §2, with “6000 well-growing leukemia cells were” for “6000 well-growing cells were”, “C. and was incubated for” for “C. and incubated for”

Jurkat = experiment: Leukemia cell growth inhibition, MTT, 72 h; format: cell-based, human; conditions: Homo sapiens, Jurkat; 72 h, MTT
Text: as §3
as §2, with “6000 well-growing leukemia cells were” for “6000 well-growing cells were”, “C. and was incubated for” for “C. and incubated for”

K562/ADR = experiment: Leukemia cell growth inhibition, MTT, 72 h; format: cell-based; conditions: Homo sapiens
Text: as §3
as §2, with “6000 well-growing leukemia cells were” for “6000 well-growing cells were”, “C. and was incubated for” for “C. and incubated for”

Kasumi-1 = experiment: Leukemia cell growth inhibition, MTT, 72 h; format: cell-based; conditions: Homo sapiens
Text: as §3
as §2, with “6000 well-growing leukemia cells were” for “6000 well-growing cells were”, “C. and was incubated for” for “C. and incubated for”

| IC50 (MGC-803) [µg/mL] | IC90 (MGC-803) [µg/mL] | IC50 (CNE) [µg/mL] | IC90 (CNE) [µg/mL] | IC50 (Hep-2) [µg/mL] | IC90 (Hep-2) [µg/mL] | IC50 (Hela) [µg/mL] | IC90 (Hela) [µg/mL] | IC50 (RPMI 8226) [µg/mL] | IC90 (RPMI 8226) [µg/mL] | IC50 (RKO) [µg/mL] | IC90 (RKO) [µg/mL] | IC50 (SK-OV-3) [µg/mL] | IC90 (SK-OV-3) [µg/mL] | IC50 (Hep G2) [µg/mL] | IC90 (Hep G2) [µg/mL] | IC50 (U87-MG) [µg/mL] | IC90 (U87-MG) [µg/mL] | IC50 (CaEs-17) [µg/mL] | IC90 (CaEs-17) [µg/mL] | SMILES | further results |
| --- | --- | --- | --- | --- | --- | --- | --- | --- | --- | --- | --- | --- | --- | --- | --- | --- | --- | --- | --- | --- | --- |
| 1.6 (≈ 3.42 µM) | 11.9 (≈ 25.5 µM) | 2.26 (≈ 4.83 µM) | 8.1 (≈ 17.3 µM) | 3.8 (≈ 8.13 µM) | 14.1 (≈ 30.1 µM) | 2.53 (≈ 5.41 µM) | 6.79 (≈ 14.5 µM) | 0.9 (≈ 1.93 µM) | 1.93 (≈ 4.13 µM) | 0.59 (≈ 1.26 µM) | 1.44 (≈ 3.08 µM) | 2.53 (≈ 5.41 µM) | 4.87 (≈ 10.4 µM) | 2.53 (≈ 5.41 µM) | 12.6 (≈ 27 µM) | 1.17 (≈ 2.5 µM) | 3.29 (≈ 7.04 µM) | 1.41 (≈ 3.02 µM) | 5.24 (≈ 11.2 µM) | C=C1C(=O)[C@]23[C@H](OC(=O)c4cccnc4)[C@H]1CC[C@H]2[C@@]12CO[C@@]3(O)[C@@H](O)[C@@H]1C(C)(C)CCC2=O [BS-OR-011] | IC50 (A549): 5.58 µg/mL (≈ 11.9 µM); IC90 (A549): 9.47 µg/mL (≈ 20.3 µM); IC50 (PC-3): 2.53 µg/mL (≈ 5.41 µM); IC90 (PC-3): 4.87 µg/mL (≈ 10.4 µM); IC50 (MG-63): 0.74 µg/mL (≈ 1.58 µM); IC90 (MG-63): 3.01 µg/mL (≈ 6.44 µM); IC50 (PANC-1): 2.99 µg/mL (≈ 6.4 µM); IC90 (PANC-1): 7.92 µg/mL (≈ 16.9 µM); IC50 (Becap-37): 1.96 µg/mL (≈ 4.19 µM); IC90 (Becap-37): 6.11 µg/mL (≈ 13.1 µM); IC50 (NB4): 0.27 µg/mL (≈ 0.578 µM); IC90 (NB4): 0.9 µg/mL (≈ 1.93 µM); IC50 (H9): 0.56 µg/mL (≈ 1.2 µM); IC90 (H9): 1.23 µg/mL (≈ 2.63 µM); IC50 (Jurkat): 0.87 µg/mL (≈ 1.86 µM); IC90 (Jurkat): 5.24 µg/mL (≈ 11.2 µM); IC50 (K562/ADR): 0.75 µg/mL (≈ 1.6 µM); IC90 (K562/ADR): 2.35 µg/mL (≈ 5.03 µM); IC50 (Kasumi-1): 1.03 µg/mL (≈ 2.2 µM); IC90 (Kasumi-1): 1.94 µg/mL (≈ 4.15 µM) |
| 3.36 (≈ 5.94 µM) | 9.55 (≈ 16.9 µM) | 3.29 (≈ 5.82 µM) | 10.9 (≈ 19.2 µM) | 4.34 (≈ 7.67 µM) | 13.9 (≈ 24.6 µM) | 3.01 (≈ 5.32 µM) | 6.16 (≈ 10.9 µM) | 0.97 (≈ 1.71 µM) | 3.58 (≈ 6.33 µM) | 1.01 (≈ 1.79 µM) | 1.93 (≈ 3.41 µM) | 5.3 (≈ 9.37 µM) | 11.6 (≈ 20.5 µM) | 3.37 (≈ 5.96 µM) | 13.2 (≈ 23.3 µM) | 1.98 (≈ 3.5 µM) | 6.78 (≈ 12 µM) | 2.18 (≈ 3.85 µM) | 7.64 (≈ 13.5 µM) | C=C1C(=O)[C@]23[C@H](OC(=O)C4CCN(S(=O)(=O)CC)CC4)[C@H]1CC[C@H]2[C@@]12CO[C@@]3(O)[C@@H](O)[C@@H]1C(C)(C)CCC2=O [BS-OR-038] | IC50 (A549): 6.1 µg/mL (≈ 10.8 µM); IC90 (A549): 10.2 µg/mL (≈ 18 µM); IC50 (PC-3): 5.3 µg/mL (≈ 9.37 µM); IC90 (PC-3): 11.6 µg/mL (≈ 20.5 µM); IC50 (MG-63): 0.95 µg/mL (≈ 1.68 µM); IC90 (MG-63): 4.89 µg/mL (≈ 8.64 µM); IC50 (PANC-1): 4.7 µg/mL (≈ 8.31 µM); IC90 (PANC-1): 11.4 µg/mL (≈ 20.1 µM); IC50 (Becap-37): 3.04 µg/mL (≈ 5.37 µM); IC90 (Becap-37): 7.59 µg/mL (≈ 13.4 µM); IC50 (NB4): 0.44 µg/mL (≈ 0.778 µM); IC90 (NB4): 2.63 µg/mL (≈ 4.65 µM); IC50 (H9): 1.42 µg/mL (≈ 2.51 µM); IC90 (H9): 3.01 µg/mL (≈ 5.32 µM); IC50 (Jurkat): 1.36 µg/mL (≈ 2.4 µM); IC90 (Jurkat): 5.91 µg/mL (≈ 10.4 µM); IC50 (K562/ADR): 1.43 µg/mL (≈ 2.53 µM); IC90 (K562/ADR): 3.92 µg/mL (≈ 6.93 µM); IC50 (Kasumi-1): 1.1 µg/mL (≈ 1.94 µM); IC90 (Kasumi-1): 3.95 µg/mL (≈ 6.98 µM) |
| 2.89 (≈ 4.39 µM) | 8.83 (≈ 13.4 µM) | 3.73 (≈ 5.66 µM) | 10.2 (≈ 15.6 µM) | 3.97 (≈ 6.03 µM) | 13.3 (≈ 20.3 µM) | 2.98 (≈ 4.52 µM) | 7.76 (≈ 11.8 µM) | 1.48 (≈ 2.25 µM) | 3.83 (≈ 5.81 µM) | 1.21 (≈ 1.84 µM) | 1.97 (≈ 2.99 µM) | 3.88 (≈ 5.89 µM) | 9.45 (≈ 14.3 µM) | 3.81 (≈ 5.78 µM) | > 16 | 2.16 (≈ 3.28 µM) | 6.75 (≈ 10.2 µM) | 3.48 (≈ 5.28 µM) | 11 (≈ 16.7 µM) | C=C1C(=O)[C@]23[C@H](OC(=O)C4CCN(S(=O)(=O)c5ccccc5[N+](=O)[O-])CC4)[C@H]1CC[C@H]2[C@@]12CO[C@@]3(O)[C@@H](O)[C@@H]1C(C)(C)CCC2=O [BS-OR-034] | IC50 (A549): 6.43 µg/mL (≈ 9.76 µM); IC90 (A549): 11.9 µg/mL (≈ 18.1 µM); IC50 (PC-3): 3.88 µg/mL (≈ 5.89 µM); IC90 (PC-3): 9.45 µg/mL (≈ 14.3 µM); IC50 (MG-63): 1.28 µg/mL (≈ 1.94 µM); IC90 (MG-63): 3.22 µg/mL (≈ 4.89 µM); IC50 (PANC-1): 4.99 µg/mL (≈ 7.58 µM); IC90 (PANC-1): 11.9 µg/mL (≈ 18.1 µM); IC50 (Becap-37): 3.24 µg/mL (≈ 4.92 µM); IC90 (Becap-37): 10.1 µg/mL (≈ 15.4 µM); IC50 (NB4): 0.5 µg/mL (≈ 0.759 µM); IC90 (NB4): 1.94 µg/mL (≈ 2.95 µM); IC50 (H9): 0.78 µg/mL (≈ 1.18 µM); IC90 (H9): 1.73 µg/mL (≈ 2.63 µM); IC50 (Jurkat): 1.32 µg/mL (≈ 2 µM); IC90 (Jurkat): 5.36 µg/mL (≈ 8.14 µM); IC50 (K562/ADR): 1.52 µg/mL (≈ 2.31 µM); IC90 (K562/ADR): 4.77 µg/mL (≈ 7.24 µM); IC50 (Kasumi-1): 1.58 µg/mL (≈ 2.4 µM); IC90 (Kasumi-1): 3.46 µg/mL (≈ 5.25 µM) |
